# Values quoted from earlier work in publication PMC11481577, “Allosteric coupling of substrate binding and proton translocation in MmpL3 transporter from Mycobacterium tuberculosis” (mBio, 2024).
# Molecular target: MmpL3
# Details: previously measured; read-out: affinity to MmpL3; cited from earlier work
row,Substance,Kd
1,phosphatidylethanolamine [PE],19.5 ± 6.3 µM
2,trehalose monomycolates [TMM],3.7 ± 1.3 µM
